Tests used:
UACC-257 = experiment: NCI In Vitro Cell Line Screening (SRB); assay type: cell-based, human; conditions: UACC-257, Melanoma, 48 h
HT29 = experiment: cells
Procedure: (§1) Compounds were solubilized at […] in DMSO and were stored at −20° C. Test compounds were initially tested at a single concentration of 10 μM and a subset of test compounds were further tested in selected cell lines using a six concentration dose response curve.
(§2) Cell Preparation Cancer cell lines were passaged in T-75 flasks prior to use in the assay in cell culture medium recommended by the ATCC (American Type Culture Collection; Table 6). On the day preceding the assay, the cells were split 1:2 to assure they were in an exponential growth phase at the time of compound treatment. Total cell and viability quantification was performed using a hemocytometer and Trypan Blue dye exclusion. […] The cells were resuspended at the appropriate cell per mL (Table 6) in tissue culture medium and added to the microtitre plates in a volume of 100 μL. Colon cell lines were incubated overnight at 37° C./5% CO2 to allow for cell adherence to the plates.
(§3) Plate Format: Each plate contains cell control wells (cells only), drug calorimetric control wells (drug only) as well as experimental wells (drug plus cells). Samples were tested in triplicate at a concentration of 10 μM and five half-logarithmic dilutions.
(§4) Cell Viability by XTT: Following incubation at 37° C. in a 5% CO2 incubator for four days, the test plates were stained with the tetrazolium dye XTT (2,3-bis(2-methoxy-4-nitro-5-sulfophenyl)-5-[(phenylamino)carbonyl]-2H-tetrazolium hydroxide). XTT-tetrazolium was metabolized by the mitochondrial enzymes of metabolically active cells to a soluble formazan product. XTT solution was prepared daily as a stock of 1 mg/mL in RPMI1640. Phenazine methosulfate (PMS) solution was prepared at 0.15 mg/mL in phosphate buffered saline (PBS) and stored in the dark at −20° C. XTT/PMS stock was prepared immediately before use by adding 40 μL of PMS per mL of XTT solution. Fifty (50) microlitres of XTT/PMS was added to each well of the plate and the plate was reincubated for 4 hours at 37° C. Plates were sealed with adhesive plate sealers and shaken gently or inverted several times to mix the soluble formazan product and the plate was read spectrophotometrically at 450/650 nm with a Molecular Devices Vmax plate reader. […] An Average Response Factor (ARF) was calculated for each compound by averaging the ten Percentage of Control values for the cell lines. […] Deviations below 100% control indicate activity. The concentration of each tested compound is 10 μM.

HL-60 = experiment: Cell viability by XTT; assay type: cell-based; conditions: HL-60, single dose 10 μM, four days
Procedure: as §1, §2, §3, §4

KM12 = experiment: NCI In Vitro Cell Line Screening (SRB); assay type: cell-based, human; conditions: KM12, Colon Cancer, 48 h; for GI50 / CC50: Homo sapiens; for CC50: read-out: LC50 (the source's name)
THP-1 = experiment: Cell viability by XTT
Procedure: as §1, §2, §3, §4

Caco-2 = experiment: Cell viability by XTT
Procedure: as §1, §2, §3, §4

Jurkat = experiment: Cell viability by XTT
Procedure: as §1, §2, §3, §4

human polymerase alpha = biological target: T1, human polymerase alpha (Homo sapiens, UniProt P09884); experiment: Human polymerase alpha inhibition (Replizyme kit); assay type: biochemical; conditions: dose response
T1 construct: purchased Replizyme Ltd (Heslington, York, UK)
T1 sequence (P09884 1-1462): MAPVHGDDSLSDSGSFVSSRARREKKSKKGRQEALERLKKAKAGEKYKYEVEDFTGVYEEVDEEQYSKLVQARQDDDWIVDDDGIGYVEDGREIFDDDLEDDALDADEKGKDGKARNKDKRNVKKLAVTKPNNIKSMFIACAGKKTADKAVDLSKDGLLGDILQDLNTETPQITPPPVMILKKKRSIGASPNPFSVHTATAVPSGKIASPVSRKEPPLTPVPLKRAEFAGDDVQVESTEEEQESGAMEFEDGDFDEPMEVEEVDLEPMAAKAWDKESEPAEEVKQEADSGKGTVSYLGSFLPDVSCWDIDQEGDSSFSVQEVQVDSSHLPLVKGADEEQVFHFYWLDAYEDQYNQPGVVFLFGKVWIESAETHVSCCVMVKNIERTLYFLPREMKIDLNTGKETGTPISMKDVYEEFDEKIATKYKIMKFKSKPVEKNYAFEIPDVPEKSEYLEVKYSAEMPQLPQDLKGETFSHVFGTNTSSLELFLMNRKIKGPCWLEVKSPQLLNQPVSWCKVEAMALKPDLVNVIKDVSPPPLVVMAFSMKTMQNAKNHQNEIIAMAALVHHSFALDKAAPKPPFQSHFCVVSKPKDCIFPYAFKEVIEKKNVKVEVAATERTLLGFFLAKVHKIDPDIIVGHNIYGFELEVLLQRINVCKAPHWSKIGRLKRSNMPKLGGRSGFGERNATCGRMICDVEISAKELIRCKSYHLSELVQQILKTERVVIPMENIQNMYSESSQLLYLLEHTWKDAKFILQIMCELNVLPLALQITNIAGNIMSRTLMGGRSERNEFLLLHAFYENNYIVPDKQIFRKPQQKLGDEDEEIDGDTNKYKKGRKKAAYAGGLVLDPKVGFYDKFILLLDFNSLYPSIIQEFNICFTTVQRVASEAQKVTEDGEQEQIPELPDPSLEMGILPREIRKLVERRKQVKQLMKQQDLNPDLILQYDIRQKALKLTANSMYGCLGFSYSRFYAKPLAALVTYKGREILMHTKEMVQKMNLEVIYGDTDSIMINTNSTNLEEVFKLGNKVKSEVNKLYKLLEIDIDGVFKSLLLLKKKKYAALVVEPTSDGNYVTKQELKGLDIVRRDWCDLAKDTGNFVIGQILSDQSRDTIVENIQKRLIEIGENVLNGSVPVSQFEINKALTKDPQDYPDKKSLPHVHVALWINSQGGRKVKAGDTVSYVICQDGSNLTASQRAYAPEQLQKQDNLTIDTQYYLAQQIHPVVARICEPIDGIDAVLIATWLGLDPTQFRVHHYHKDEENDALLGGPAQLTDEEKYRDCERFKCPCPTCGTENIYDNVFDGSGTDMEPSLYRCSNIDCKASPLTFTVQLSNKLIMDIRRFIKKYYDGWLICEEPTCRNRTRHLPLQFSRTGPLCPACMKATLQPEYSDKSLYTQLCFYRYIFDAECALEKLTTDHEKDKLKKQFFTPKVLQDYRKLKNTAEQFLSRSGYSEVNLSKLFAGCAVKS
Procedure: Calf polymerase alpha and human polymerase alpha investigations were performed with a kit available from Replizyme Ltd (Heslington, York, UK).

| SMILES | GI50 (UACC-257; Homo sapiens) [µM] | TGI (UACC-257) [µM] | Percentage of Cell Control (HT29; HT29, single dose 10 μM, four days) [%] | CC50 (HT29; Homo sapiens, HT-29, read-out: Activity (TC50)) [µM] | Percentage of Cell Control (HL-60) [%] | GI50 (KM12) [µM] | CC50 (KM12) [µM] | TGI (KM12) [µM] | CC50 (THP-1; Homo sapiens, THP-1, read-out: Activity (TC50)) [µM] | Percentage of Cell Control (THP-1; THP-1, single dose 10 μM, four days) [%] | Percentage of Cell Control (Caco-2; Caco-2, single dose 10 μM, four days) [%] | CC50 (Caco-2; Homo sapiens, Caco-2, read-out: Activity (TC50)) [µM] | CC50 (Jurkat; Homo sapiens, read-out: Activity (TC50)) [µM] | Percentage of Cell Control (Jurkat; single dose 10 μM, four days) [%] | IC50 (human polymerase alpha) [µM] |
| --- | --- | --- | --- | --- | --- | --- | --- | --- | --- | --- | --- | --- | --- | --- | --- |
| CC(C)(C)c1ccc(NC(=O)[C@H](CCCCN)NC(=O)OCC2c3ccccc3-c3ccccc32)cc1 [Compound 105, (S)-[5-AMINO-1-(4-TERT-BUTYL-PHENYLCARBAMOYL)-PENTYL]-CARBAMIC ACID 9H-FLUOREN-9-YLMETHYL ESTER] | 1.75 | 3.70 | 13.8 | 8.5 | 19.6 | 14.8 | 55.7 | 28.7 | 6.7 | 0 | 0 | 8.6 | 2.5 | 23.5 |  |
| Cc1ccc(NC(=O)[C@@H](CCCCN)NC(=O)Nc2ccc3c(c2)Cc2ccccc2-3)cc1 [Compound 173, (R)-6-AMINO-2-[3-(9H-FLUOREN-2-YL)-UREIDO]-HEXANOIC ACID P-TOLYLAMIDE] |  |  |  |  |  | 1.31 | 5.07 | 2.57 |  |  |  |  |  |  |  |
| Cc1cc2cc(NC(=O)[C@H](CCCNC(=O)CN)NC(=O)Nc3ccc4c(c3)Cc3ccccc3-4)ccc2[nH]1 [Compound 297, (S)-5-(2-AMINO-ACETYLAMINO)-2-[3-(9H-FLUOREN-2-YL)-UREIDO]-PENTANOIC ACID (2-METHYL-1H-INDOL-5-YL)-AMIDE] |  |  |  |  |  |  |  |  |  |  |  |  |  |  | 10 |
